According to patent US8962623B2, “Aminopyrazine compounds” (Locus Pharmaceuticals, Inc., priority 2011, dated 2015):

Assays:
Btk = Btk (Homo sapiens, UniProt Q06187); test: Inhibitory activity to Btk (similar procedure); type: biochemical; settings: selectivity ratio
Procedure: (§1) Study of inhibitory activity to other various kinases (e.g. Lck, InsR, Btk) was performed in similar procedure above described.

InsR = InsR (Homo sapiens, UniProt P06213); test: Inhibitory activity to InsR (similar procedure); type: biochemical; settings: selectivity ratio
Procedure: as §1

Itk = target: T1, Itk (Homo sapiens, UniProt Q08881); test: Itk in vitro inhibitory activity in radioassay (33P incorporation into Phospholipase C-γ-1); type: biochemical; settings: 20 μM ATP solution, read-out: IC50 over Itk
T1 construct: purchased Invitrogen
T1 sequence (Q08881 1-620): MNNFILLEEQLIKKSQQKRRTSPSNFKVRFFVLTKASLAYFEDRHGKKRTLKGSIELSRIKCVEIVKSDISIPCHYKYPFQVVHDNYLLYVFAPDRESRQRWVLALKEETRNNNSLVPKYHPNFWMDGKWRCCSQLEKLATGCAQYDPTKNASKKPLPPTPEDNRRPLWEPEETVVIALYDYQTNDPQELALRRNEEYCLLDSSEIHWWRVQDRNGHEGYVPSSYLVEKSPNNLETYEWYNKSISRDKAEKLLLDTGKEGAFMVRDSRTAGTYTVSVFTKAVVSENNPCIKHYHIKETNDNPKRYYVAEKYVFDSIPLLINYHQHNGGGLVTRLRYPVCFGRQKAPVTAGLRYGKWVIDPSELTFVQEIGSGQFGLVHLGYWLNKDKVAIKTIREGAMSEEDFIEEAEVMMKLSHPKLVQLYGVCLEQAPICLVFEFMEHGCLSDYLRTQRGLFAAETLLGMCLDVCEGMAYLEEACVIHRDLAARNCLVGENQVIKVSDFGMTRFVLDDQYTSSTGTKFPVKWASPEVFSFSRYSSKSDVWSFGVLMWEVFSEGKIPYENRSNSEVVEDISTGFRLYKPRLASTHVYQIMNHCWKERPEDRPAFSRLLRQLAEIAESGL
Procedure: The Itk protein kinase activity (Invitrogen) was determined by measuring the incorporation of ^33P from γ-[^33P] ATP into the Phospholipase C-γ-1 substrate (Calbiochem). The dilution series of the compound of the present invention were dissolved in DMSO. The diluted solution (1 μl) of the compounds of the present invention in DMSO was added to a 96-well assay plate. Additionally, Itk kinase solution (39 μL) composed of 3.2 nM Itk (Invitrogen) in reaction buffer (12.5 mM Tris (pH 7.5), 0.01% Triton X-100, 5% glycerol, 10 mM MgCl2, 1 mM EGTA, 5 mM glycerol 2-phosphate, 2 mM DTT and 0.5 mM sodium orthovanadate) was added to the assay plates. The solution was pre-incubated for 20 minutes at 30° C. with shaking. Then ATP/substrate solution (10 μl) composed of […] Phospholipase C-γ-1 (Calbiochem), 1.5% v/v γ-^33P-ATP (PerkinElmer), 20 μM ATP and reaction buffer was added. After incubating at 30° C. with shaking for 70 minutes, the reaction was stopped by adding 10 μl of 0.6 M phosphoric acid to each well. The each reaction from the assay plate was transferred and captured on a phosphocellulose 96-well plate (Millipore MAPHNOB). The reaction mixture was analyzed on the PerkinElmer TopCount NXT HTS 96-well Liquid Scintillation counter.
Inhibition rate (%) of the compound was calculated with the following formula: Inhibition rate(%)={1−(Bx−B100)/(B0−B100)}×100
BX: average counts for the compound
B100: average counts for 100% inhibition control (i.e., no enzyme, no compound)
B0: average counts for 0% inhibition control (i.e., no compound)
The value of 50% inhibition rate (IC50) for the compound was defined as the concentration of the test compound that caused a 50% decrease in the maximum inhibition. IC50 values were calculated from replicate curves by non-linear regression using the sigmoidal dose-response equation in GraphPad Prism software.

Lck = Lck (Homo sapiens, UniProt P06239); test: Inhibitory activity to Lck (similar procedure); type: biochemical; settings: selectivity ratio
Procedure: Study of inhibitory activity to Lck was performed in similar procedure above described.
as §1

[1] = test system: IL-2 production in mouse whole blood; test: Mouse whole blood IL-2 assay; type: cell-based, BALB/c mouse; settings: anti-CD3/anti-CD28 stimulation, 18 hours, IL-2 by ELISA
Procedure: The dilution series of the compound of the present invention in DMSO were further diluted by addition of RPMI1640 medium (Invitrogen). The diluted compound solution (6.5 μl) was added to a 96-well plate. BALB/c mouse heparinized peripheral blood was diluted 1:2 in RPMI1640, and added 123.5 μl of the diluted blood to the compound plate. The blood samples were pre-incubated at 37° C. for 30 minutes. Anti-CD3 and anti-CD28 antibody mixture (6 μl; 20 μg/mL each) was spotted into a 96 well assay plates. Pre-treated blood samples (114 μl) were added to each well and the plate was incubated for 18 hours at 37° C. in 5% CO2. After the incubation, supernatants were collected by centrifugation at 300×g for 10 min. IL-2 concentration was determined by ELISA method. The inhibition rate (%) of the compound was calculated with the following formula: Inhibition rate(%)={1−(Cx−C100)/(C0−C100)}×100
CX: IL-2 concentration for the compound
C100: IL-2 concentration for 100% inhibition control (i.e., no stimulation, no compound)
C0: IL-2 concentration for 0% inhibition control (i.e., no compound)
The value of 50% inhibition rate (IC50) for the compound was determined from inhibition curve based on inhibition rate at each concentration of the compound of the present invention.

Sequence of Btk (Q06187 whole entry, species assumed): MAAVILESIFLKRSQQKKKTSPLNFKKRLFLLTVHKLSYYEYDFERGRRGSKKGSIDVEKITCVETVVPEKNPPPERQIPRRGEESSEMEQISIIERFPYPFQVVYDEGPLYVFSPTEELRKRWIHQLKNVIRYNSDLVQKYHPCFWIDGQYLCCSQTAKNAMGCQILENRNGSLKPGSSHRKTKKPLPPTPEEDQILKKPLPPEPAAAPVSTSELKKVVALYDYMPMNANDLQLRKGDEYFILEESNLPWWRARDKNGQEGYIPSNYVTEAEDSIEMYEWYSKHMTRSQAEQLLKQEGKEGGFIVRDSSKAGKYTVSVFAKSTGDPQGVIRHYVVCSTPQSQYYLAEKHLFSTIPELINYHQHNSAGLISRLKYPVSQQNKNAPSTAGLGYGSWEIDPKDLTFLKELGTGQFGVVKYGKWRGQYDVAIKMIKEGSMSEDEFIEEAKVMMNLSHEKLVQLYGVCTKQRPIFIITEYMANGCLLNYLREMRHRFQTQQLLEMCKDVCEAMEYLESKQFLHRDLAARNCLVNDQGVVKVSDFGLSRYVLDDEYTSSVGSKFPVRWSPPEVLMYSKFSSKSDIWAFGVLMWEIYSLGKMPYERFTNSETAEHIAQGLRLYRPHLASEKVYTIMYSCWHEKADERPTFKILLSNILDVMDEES
Sequence of InsR (P06213 28-1382, species assumed): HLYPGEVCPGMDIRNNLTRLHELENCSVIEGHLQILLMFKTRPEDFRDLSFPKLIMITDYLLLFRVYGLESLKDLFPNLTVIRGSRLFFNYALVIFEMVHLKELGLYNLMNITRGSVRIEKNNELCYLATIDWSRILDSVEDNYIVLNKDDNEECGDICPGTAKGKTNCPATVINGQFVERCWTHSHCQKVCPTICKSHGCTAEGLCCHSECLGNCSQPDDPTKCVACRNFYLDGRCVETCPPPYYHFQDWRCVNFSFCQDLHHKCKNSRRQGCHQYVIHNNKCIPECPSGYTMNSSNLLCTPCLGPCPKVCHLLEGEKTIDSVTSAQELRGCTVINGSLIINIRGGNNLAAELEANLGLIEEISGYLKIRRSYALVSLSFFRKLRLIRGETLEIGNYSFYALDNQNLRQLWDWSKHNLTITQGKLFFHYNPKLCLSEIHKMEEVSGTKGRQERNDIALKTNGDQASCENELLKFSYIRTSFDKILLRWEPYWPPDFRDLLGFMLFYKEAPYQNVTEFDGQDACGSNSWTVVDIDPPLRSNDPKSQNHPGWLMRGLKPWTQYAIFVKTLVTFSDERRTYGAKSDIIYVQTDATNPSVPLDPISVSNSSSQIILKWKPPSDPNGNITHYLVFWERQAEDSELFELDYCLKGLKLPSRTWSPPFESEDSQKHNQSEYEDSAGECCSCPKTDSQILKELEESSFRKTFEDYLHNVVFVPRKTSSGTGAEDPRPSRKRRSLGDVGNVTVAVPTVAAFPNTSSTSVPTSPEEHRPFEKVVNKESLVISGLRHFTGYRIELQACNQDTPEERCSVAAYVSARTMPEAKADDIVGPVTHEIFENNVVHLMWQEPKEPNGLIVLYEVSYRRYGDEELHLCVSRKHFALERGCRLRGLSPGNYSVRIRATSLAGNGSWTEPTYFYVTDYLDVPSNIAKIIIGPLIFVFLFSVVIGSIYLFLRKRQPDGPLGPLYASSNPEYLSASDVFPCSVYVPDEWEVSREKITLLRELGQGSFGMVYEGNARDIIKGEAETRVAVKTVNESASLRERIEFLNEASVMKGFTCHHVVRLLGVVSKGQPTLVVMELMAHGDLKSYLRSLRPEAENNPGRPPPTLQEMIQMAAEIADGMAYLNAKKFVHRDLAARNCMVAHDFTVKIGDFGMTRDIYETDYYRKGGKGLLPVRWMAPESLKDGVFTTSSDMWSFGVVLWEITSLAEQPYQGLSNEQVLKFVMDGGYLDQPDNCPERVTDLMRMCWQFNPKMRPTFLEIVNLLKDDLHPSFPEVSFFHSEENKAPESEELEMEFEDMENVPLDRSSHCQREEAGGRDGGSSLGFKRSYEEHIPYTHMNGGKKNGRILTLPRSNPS
Sequence of Lck (P06239 whole entry, species assumed): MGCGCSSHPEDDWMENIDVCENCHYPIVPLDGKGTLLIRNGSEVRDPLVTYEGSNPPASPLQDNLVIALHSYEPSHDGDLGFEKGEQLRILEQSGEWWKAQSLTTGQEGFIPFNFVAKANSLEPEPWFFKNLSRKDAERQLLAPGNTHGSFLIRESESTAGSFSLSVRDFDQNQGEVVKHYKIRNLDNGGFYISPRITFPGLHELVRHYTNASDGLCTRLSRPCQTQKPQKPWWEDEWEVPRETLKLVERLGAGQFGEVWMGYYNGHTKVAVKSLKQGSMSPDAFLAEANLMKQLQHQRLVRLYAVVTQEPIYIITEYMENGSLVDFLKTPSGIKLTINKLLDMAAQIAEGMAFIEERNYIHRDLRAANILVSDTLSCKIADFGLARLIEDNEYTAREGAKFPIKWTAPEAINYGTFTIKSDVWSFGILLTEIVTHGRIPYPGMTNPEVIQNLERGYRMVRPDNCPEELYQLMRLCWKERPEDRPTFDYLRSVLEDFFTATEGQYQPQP

SMILES	Btk[IC50]/Itk[IC50] (Btk)	InsR[IC50]/Itk[IC50] (InsR)	IC50 (Itk) [nM]	Lck[IC50]/Itk[IC50] (Lck)	IC50 [1] [nM]
Cc1c(C(=O)Nc2ccc(-c3nc(-c4cccc(N5CCOCC5)n4)cnc3N)cc2)c(=O)n(-c2ccccc2)n1C [Example 7(6), N-(4-{3-amino-6-[6-(4-morpholinyl)-2-pyridinyl]-2-pyrazinyl}phenyl)-1,5-dimethyl-3-oxo-2-phenyl-2,3-dihydro-1H-pyrazole-4-carboxamide]	>200	100	2	85	–
COC1CN(c2cccc(-c3cnc(N)c(-c4ccc(NC(=O)c5c(C)n(C)n(-c6cccc(Cl)c6)c5=O)cc4)n3)n2)C1 [Example 14(12), N-(4-{3-amino-6-[6-(3-methoxy-1-azetidinyl)-2-pyridinyl]-2-pyrazinyl}phenyl)-2-(3-chlorophenyl)-1,5-dimethyl-3-oxo-2,3-dihydro-1H-pyrazole-4-carboxamide]	>500	1400	2	185	–
COC1CCN(c2cccc(-c3cnc(N)c(-c4ccc(NC(=O)c5c(C)n(C)n(-c6cccc(C)c6)c5=O)cc4)n3)n2)CC1 [Example 17(11), N-(4-{3-amino-6-[6-(4-methoxy-1-piperidinyl)-2-pyridinyl]-2-pyrazinyl}phenyl)-1,5-dimethyl-2-(3-methylphenyl)-3-oxo-2,3-dihydro-1H-pyrazole-4-carboxamide]	>1000	>300	1	>300	–

More lines, now with the values ahead:

Btk[IC50]/Itk[IC50] (Btk)	InsR[IC50]/Itk[IC50] (InsR)	IC50 (Itk) [nM]	Lck[IC50]/Itk[IC50] (Lck)	IC50 [1] [nM]	SMILES
>1000	>1000	1	>360	350	Cc1c(C(=O)Nc2ccc(-c3nc(-c4ccnc(N5CCOCC5)c4)cnc3N)nc2)c(=O)n(-c2cccc(Cl)c2)n1C [Example 29(2), N-(6-{3-amino-6-[2-(4-morpholinyl)-4-pyridinyl]-2-pyrazinyl}-3-pyridinyl)-2-(3-chlorophenyl)-1,5-dimethyl-3-oxo-2,3-dihydro-1H-pyrazole-4-carboxamide]
–	–	4	–	–	COc1cccc(-n2c(=O)c(C(=O)Nc3ccc(-c4nc(-c5ccnc(N6CC(OC)C6)c5)cnc4N)nc3)c(C)n2C)c1 [Example 29(33), N-(6-{3-amino-6-[2-(3-methoxy-1-azetidinyl)-4-pyridinyl]-2-pyrazinyl}-3-pyridinyl)-2-(3-methoxyphenyl)-1,5-dimethyl-3-oxo-2,3-dihydro-1H-pyrazole-4-carboxamide]
